# Assay results taken from ChEMBL document CHEMBL1127685, “A novel 3-substituted benzazepinone growth hormone secretagogue (L-692,429)” (1994).
# Organism: Rattus norvegicus
# Experiment: In vitro dose required for stimulation of GH release from rat pituitary cells
# Type: functional
# Settings: Pituitary gland cell, read-out: ED50 (the source's name)
row,EC50 [nM],Compound
1,2000,CC(C)(N)CC(=O)NC1Cc2ccccc2N(Cc2ccc(-c3ccccc3-c3nn[nH]n3)cc2)C1=O (stereo not given)
2,3200,CC(C)(N)CC(=O)NC1CCc2ccccc2N(Cc2ccc(-c3ccccc3C(=O)O)cc2)C1=O (stereo not given)
3,60,CC(C)(N)CC(=O)N[C@@H]1CCc2ccccc2N(Cc2ccc(-c3ccccc3-c3nn[nH]n3)cc2)C1=O
4,160,CC(C)(N)CC(=O)NC1CCc2ccccc2N(Cc2ccc(-c3ccccc3-c3nn[nH]n3)cc2)C1=O [L-158432]
5,8000,CC(C)(N)CC(=O)NC1CCCc2ccccc2N(Cc2ccc(-c3ccccc3-c3nn[nH]n3)cc2)C1=O (stereo not given)
